From patent publication US8362022B2, “Selective subtype alpha 2 adrenergic agents and methods for use thereof” (Allergan, Inc., priority 2008, dated 2013)

Tested on: Chung model of neuropathic pain
Experiment: Chung model of neuropathic pain (tactile allodynia, von Frey hairs)
Type: in vivo
Conditions: rats
Source text: A model in accordance with Kim and Chung 1992, Pain […], pp 355-363 (Chung model), for chronic pain (in particular peripheral neuropathy) involves the surgical ligation of the L5 (and optionally the L6) spinal nerves on one side in experimental animals. Rats recovering from the surgery gain weight and display a level of general activity similar to that of normal rats. However, these rats develop abnormalities of the foot, wherein the hindpaw is moderately everted and the toes are held together. More importantly, the hindpaw on the side affected by the surgery appears to become sensitive to pain from low-threshold mechanical stimuli, such as that producing a faint sensation of touch in a human, within about 1 week following surgery. This sensitivity to normally non-painful touch is called “tactile allodynia” and lasts for at least two months. The response includes lifting the affected hindpaw to escape from the stimulus, licking the paw and holding it in the air for many seconds. None of these responses is normally seen in the control group.
Rats are anesthetized before surgery. The surgical site is shaved and prepared either with betadine or Novacaine. Incision is made from the thoracic vertebra XIII down toward the sacrum. Muscle tissue is separated from the spinal vertebra (left side) at the L4-S2 levels. The L6 vertebra is located and the transverse process is carefully removed with a small rongeur to expose the L4-L6 spinal nerves. The L5 and L6 spinal nerves are isolated and tightly ligated with 6-0 silk thread. The same procedure is done on the right side as a control, except no ligation of the spinal nerves is performed.
A complete hemostasis is confirmed, then the wounds are sutured. A small amount of antibiotic ointment is applied to the incised area, and the rat is transferred to the recovery plastic cage under a regulated heat-temperature lamp. On the day of the experiment, at least seven days after the surgery, typically six rats per test group are administered the test drugs by intraperitoneal (i.p.) injection or oral gavage. For i.p. injection, the compounds are formulated in approximately 10 to 50% DMSO and given in a volume of 1 ml/kg body weight.
Tactile allodynia is measured prior to and 30 minutes after drug administration using von Frey hairs that are a series of fine hairs with incremental differences in stiffness. Rats are placed in a plastic cage with a wire mesh bottom and allowed to acclimate for approximately 30 minutes. The von Frey hairs are applied perpendicularly through the mesh to the mid-plantar region of the rats' hindpaw with sufficient force to cause slight buckling and held for 6-8 seconds. The applied force has been calculated to range from 0.41 to 15.1 grams. If the paw is sharply withdrawn, it is considered a positive response. A normal animal will not respond to stimuli in this range, but a surgically ligated paw will be withdrawn in response to a 1-2 gram hair. The 50% paw withdrawal threshold is determined using the method of Dixon, W. J., Ann. Rev. Pharmacol. Toxicol. 20:441-462 (1980). The post-drug threshold is compared to the pre-drug threshold and the percent reversal of tactile sensitivity is calculated based on a normal threshold of 15.1 grams. The results are expressed in percent (%) MPE, where the MPE value reflects the percentage reversal of pain threshold to that of a normal animal (100%).

Cc1cccc(C(Cc2cccnc2)/N=C2/NCCO2)c1C (stereo not drawn) [Compound 21, 1-(2,3-Dimethylphenyl)-N-(oxazolidin-2-ylidene)-2-(pyridin-3-yl)ethanamine] was tested, and the “% Pain Reversal ± SEM” value (0.10 mg i.p., 30 min) was 27 ± 5%, the “% Pain Reversal ± SEM” value (0.10 mg i.p., 60 min) was ~10% and the “% Pain Reversal ± SEM” value (0.30 mg i.p., 30 min) was 60.1 ± 12.8%. The “% Pain Reversal ± SEM” value (0.30 mg i.p., 60 min) was 21.5 ± 6.1%, the “% Pain Reversal ± SEM” value (1.0 mg i.p., 30 min) was 95.9 ± 4.1% and the “% Pain Reversal ± SEM” value (1.0 mg i.p., 60 min) was 77.0 ± 7.6%.
